In brackets after ≈: the same amount, converted by molar mass.

What is called solubility (kinetic) is solubility judged after dilution from a stock solution rather than from solid.

For this data set the following is noted: buffer; pH 7.4; 200.0 µM.
As to `Cc1cc(C(=O)N2CCN(C(=O)c3ccco3)CC2)ccc1[N+](=O)[O-]`, the kinetic solubility stood at 47.5 µg/mL (≈ 138 µM).
For the compound `CC(C)(C)NC(=O)COc1ccc(S(=O)(=O)N2CCCC2)cc1`, the solubility (kinetic) is > 51.1 µg/mL.
Then `CCOC(=O)c1sc2nc(C)[nH]c(=O)c2c1C`, with 2.7 µg/mL (≈ 10.7 µM); and `CCOCCCNC(=O)C1CC(=O)N(CCc2ccc(C)cc2)C1` (stereo not given), with > 49.9 µg/mL.
Then `O=C(CC12CC3CC(CC(C3)C1)C2)Nc1c(F)cccc1F`, with < 0.7 µg/mL.
Then `CCC(C)[C@H](NC(=O)Nc1ccccc1F)C(=O)O` (stereo not given in full), with > 40.2 µg/mL.
The compound `CSc1ccccc1C(=O)OCC(=O)Nc1ccc(N2CCOCC2)cc1` yielded a kinetic solubility of 9.3 µg/mL (≈ 24.1 µM).
Then `CCC(=O)N(CCC1(c2ccccc2OC)CCOC(C(C)C)C1)Cc1ccco1` (stereo not given), with 21.4 µg/mL (≈ 51.7 µM); and `CC(NCc1ccc2c(c1)OCO2)c1ccccc1.Cl` (stereo not given), with 41 µg/mL; and `CC(=O)c1ccc(S(=O)(=O)NCCC(=O)NC2CCN(Cc3ccccc3)CC2)cc1.O=C(O)C(=O)O`, with > 80 µg/mL.
Compound `CN(Cc1ccco1)C(=O)CN1C(=O)NC2(CCCC2)C1=O` came in with a kinetic solubility of 43 µg/mL (≈ 141 µM).
Next, `O=C(NC1CCSc2ccccc21)c1ccccc1F` (stereo not given): 12.4 µg/mL (≈ 43.2 µM); `Cc1ccsc1C(=O)C1CCCN(Cc2ccc(O)cc2)C1` (stereo not given): 36.8 µg/mL (≈ 117 µM); `COc1ccccc1N1C(=S)NC2CS(=O)(=O)CC21` (stereo not given): > 44.8 µg/mL.
Next, `CC(=O)N1CCN(c2ccc(NC(=O)c3ccco3)cc2)CC1`: > 47 µg/mL; `COc1ccc(CCNc2nc(C)c(C(C)=O)s2)cc1OC`: 44.1 µg/mL (≈ 138 µM).
Then `CSc1ccccc1NS(=O)(=O)c1cccc2nonc12`, with > 48.2 µg/mL.
`CC(=O)Nc1ccc(-c2csc(-c3cccnc3)n2)cc1` came in with a solubility (kinetic) of 5.9 µg/mL (≈ 20 µM).
Next, `O=Cc1ccc(Oc2nc(Cl)ncc2F)cc1`: 36.8 µg/mL (≈ 146 µM); `Cc1ccc(C(C)c2c(C)c([N+](=O)[O-])cc(C)c2[N+](=O)[O-])cn1` (stereo not given): 13.4 µg/mL (≈ 42.5 µM); `FC(F)(F)c1cccc(CN2CCSCC2)c1`: < 0.6 µg/mL.
Next, `COc1ccc(C)cc1NC(=O)C1CCN(S(C)(=O)=O)CC1`: > 49 µg/mL; `COCCCNC(=O)C1CCN(c2ccc(N3CCOCC3)nn2)CC1`: > 54.5 µg/mL.
The compound `Cc1ccc(OCC(=O)O/N=C(\N)Cc2ccc([N+](=O)[O-])cc2)cc1C` came in with a solubility (kinetic) of 9.4 µg/mL (≈ 26.3 µM).
Compound `CCOc1ccc2[nH]c3ncccc3c(=O)c2c1` displayed a kinetic solubility of 3.7 µg/mL (≈ 15.4 µM).
Then `CNC(=O)/C(C#N)=C/c1c(N2CCCCCC2)nc2c(C)cccn2c1=O`, with 50.4 µg/mL (≈ 138 µM); and `COCCn1c(C)cc(C(=O)COC(=O)/C=C/c2ccc(OC)cc2OC)c1C`, with 2.7 µg/mL (≈ 6.73 µM).
Regarding `CCC(=O)c1ccc(OCC(=O)Nc2ccccc2N2CCCCC2)cc1`, the kinetic solubility is < 0.4 µg/mL.
Then `CCc1ccccc1S(=O)(=O)c1c(C)cc(C)nc1Cl`, with 24.3 µg/mL (≈ 78.4 µM).
Next, `NC1=C(c2ccccc2)C(=O)NC1=O`: > 28.2 µg/mL; `COc1cccc(C(=O)Nc2cccc3ccccc23)c1`: 1.5 µg/mL (≈ 5.41 µM).
With `Cn1c(SCc2c(F)cccc2Cl)nc2c(c1=O)SCC2`, the solubility (kinetic) was 6.1 µg/mL (≈ 17.8 µM).
Next, `CC1CCCN(C(=O)CNS(=O)(=O)c2cccs2)C1` (stereo not given): > 45.4 µg/mL; `Cc1ccc(CNCc2cccnc2)s1.Cl`: > 38.2 µg/mL; `CC1(C)CC2(CCO1)OC(=O)CC2C(=O)Nc1c(Cl)cccc1Cl` (stereo not given): 52.9 µg/mL (≈ 142 µM).
Then `CCOc1ccc(S(=O)(=O)Nc2cc(NS(=O)(=O)c3ccc(OCC)cc3)cc(C(=O)O)c2)cc1`, with > 78.1 µg/mL; and `Oc1nc(-c2ccc(Cl)cc2)n2ccncc12`, with > 36.9 µg/mL; and `COc1cccc(C(=O)O/N=C(\N)c2ccccn2)c1OC`, with > 45.2 µg/mL.
Consider `O=C(Nc1cccc(C(F)(F)F)c1)c1cc[n+]([O-])cc1`, for which the solubility (kinetic) is > 42.3 µg/mL.
Next, `CCC(=O)c1ccc(Oc2nc3c(c(=O)n(C)c(=O)n3C)n2CC)cc1`: 19.6 µg/mL (≈ 55 µM).

These data come from PubChem BioAssay AID1996.
